Laboratory results as given in US20060171945A1, “Ip receptor antagonists for the treatment of pathological uterine conditions” (priority 2003, published 2006).
Where “and” joins values, the source holds several entries; their conditions need not be identical. Identical values can stand only once.

Columns and labels:
[1] = test system: FP receptor; conditions: cited from earlier work
[2] = test system: TP; conditions: 10 μM; cited from earlier work
[3] = biological target: EP2 (Homo sapiens, UniProt P43116); conditions: 10 μM; cited from earlier work
[4] = test system: DP; conditions: 10 μM; cited from earlier work
[5] = test system: EP4; conditions: 10 μM; cited from earlier work
[6] = biological target: T1, COX-2 (Homo sapiens, UniProt P35354); conditions: cited from earlier work
T1 sequence (P35354 18-604): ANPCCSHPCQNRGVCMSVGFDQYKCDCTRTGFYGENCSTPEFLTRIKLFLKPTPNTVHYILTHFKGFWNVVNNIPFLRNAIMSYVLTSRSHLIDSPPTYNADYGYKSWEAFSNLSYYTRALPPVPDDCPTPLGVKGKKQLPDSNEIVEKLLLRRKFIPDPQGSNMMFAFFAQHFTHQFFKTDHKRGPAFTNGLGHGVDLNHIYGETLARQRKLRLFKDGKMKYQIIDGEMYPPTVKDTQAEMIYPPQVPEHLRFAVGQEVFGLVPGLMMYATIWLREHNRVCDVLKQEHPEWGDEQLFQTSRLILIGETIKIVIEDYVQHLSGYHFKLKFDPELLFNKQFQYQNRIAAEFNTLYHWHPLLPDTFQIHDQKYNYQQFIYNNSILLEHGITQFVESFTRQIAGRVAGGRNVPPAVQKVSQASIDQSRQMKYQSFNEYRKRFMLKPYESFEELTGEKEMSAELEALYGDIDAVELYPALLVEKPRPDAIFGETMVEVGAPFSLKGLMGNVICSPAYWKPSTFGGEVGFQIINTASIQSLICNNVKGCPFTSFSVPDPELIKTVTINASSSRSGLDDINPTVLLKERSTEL

[7] = test system: endometrial epithelial and stromal cells; conditions: previously reported; cited from earlier work
[8] = biological target: T2, IP receptor (Homo sapiens, UniProt P43119); assay: Cyclic AMP assay in endometrial stromal (ES) cells; type: cell-based; conditions: 100 nM iloprost, 10 min, n=3, mean±SEM
T2 construct: from tissue; host or cells: minced human endometrial biopsy tissue
Excerpt: (§1) The Ishikawa endometrial epithelial cell line (Ishikawa cells) and endometrial stromal (ES) cells were propagated in DMEM F12 culture medium with glutamax (Invitrogen Ltd., Paisley, UK) supplemented with 10% foetal bovine serum (PAA Laboratories Ltd., Yeovil, UK). Endometrial stromal cells were a generous gift from Professor R W Kelly and they were derived from human endometrial biopsy tissue as described previously (Dunn et al (2002) J Clin Endocrinol Metab 87, 1898-1901). For cyclic AMP assay, cells were grown in 6 well plates to 70% confluence. They were starved overnight in serum free medium in the presence of indomethacin (3 μg/ml). Cells were then incubated in the same medium containing 1-methyl-3-isobutylxanthine at 37° C. for 30 minutes and treated with control medium or 100 nM iloprost for 10 minutes at 37° C. […] Data are presented as mean±SEM percentage increase in cAMP after treatment with iloprost, where the increase was calculated relative to the control samples. […] Proliferation was assessed using a colorimetric method, the CellTiter 96 Aqueous One Solution Cell Proliferation Assay (Promega, Southampton, UK) according to manufacturer's instructions. Twenty microlitres of the assay reagent (containing a tetrazolium compound, inner salt and an electron coupling reagent) were added to each well and samples were incubated at 37° C. for 2 hours and plates were read at 492 nm. […]

[9] = test system: Ishikawa endometrial epithelial cell line; assay: Proliferation assay (CellTiter 96) in Ishikawa cells; type: cell-based, human; conditions: 100 nM iloprost, 24 hours, n=5, mean±SEM
Excerpt: as §1

[10] = biological target: T2, IP receptor; assay: Cyclic AMP assay in Ishikawa cells; type: cell-based; conditions: 100 nM iloprost, 10 min, n=3, mean±SEM
Excerpt: as §1

[11] = test system: endometrial stromal (ES) cells; assay: Proliferation assay (CellTiter 96) in ES cells; type: cell-based, human; conditions: 100 nM iloprost, 24 hours, n=6, mean±SEM
Excerpt: as §1

[12] = biological target: T2, IP receptor; assay: Whole tissue cyclic AMP assay in endometrial biopsy tissue; type: cell-based; conditions: 100 nM iloprost, 10 min, n=4
Method: Endometrial biopsies from across the menstrual cycle (n=8) were minced finely with scissors and divided into three portions. The tissue was incubated is overnight at 37° C. in a humidified 5% CO2 incubator in 2 ml RPMI (Sigma, UK) medium containing, 2 mmol” L-glutamine, 100 IU penicillin and 100 μg streptomycin and 3 μg/ml indomethacin (Sigma, Poole, UK). Following overnight incubation, the tissue was incubated in the same medium containing 1-methyl-3-isobutylxanthine (Sigma) at 37° C. for 30 min. It was then treated with control medium or 100 nM iloprost (a gift from Schering Health Care, Burgess Hill, UK) for 10 min. at 37° C. and lysed in 0.1M HCl and frozen until assayed. cAMP concentration was measured by ELISA (Biomol, Affiniti, Exeter, UK) according to the manufacturer's instructions and normalised to protein concentration determined by a modification of the method of Lowry (Bio-Rad, Hemel Hempstead, UK).

[13] = biological target: T3, PGES (Homo sapiens, UniProt O14684); conditions: read-out: IC50 for inhibition of PGES activity; cited from earlier work
T3 sequence (O14684 1-152): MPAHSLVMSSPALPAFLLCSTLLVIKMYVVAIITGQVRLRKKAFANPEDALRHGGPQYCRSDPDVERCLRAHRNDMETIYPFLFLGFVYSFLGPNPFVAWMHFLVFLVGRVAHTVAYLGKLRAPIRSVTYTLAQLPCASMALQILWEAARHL

T2 sequence (P43119 whole entry): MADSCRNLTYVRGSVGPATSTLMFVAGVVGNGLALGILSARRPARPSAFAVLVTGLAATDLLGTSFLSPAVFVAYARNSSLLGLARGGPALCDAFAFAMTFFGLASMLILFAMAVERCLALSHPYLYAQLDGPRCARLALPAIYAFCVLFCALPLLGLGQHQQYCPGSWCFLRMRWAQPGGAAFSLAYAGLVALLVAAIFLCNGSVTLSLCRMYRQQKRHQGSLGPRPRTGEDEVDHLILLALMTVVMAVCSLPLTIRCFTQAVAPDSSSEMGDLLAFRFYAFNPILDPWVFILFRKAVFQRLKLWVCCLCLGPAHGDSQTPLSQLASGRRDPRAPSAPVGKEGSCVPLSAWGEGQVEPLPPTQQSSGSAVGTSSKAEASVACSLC
Chain of EP2 (P43116 whole entry): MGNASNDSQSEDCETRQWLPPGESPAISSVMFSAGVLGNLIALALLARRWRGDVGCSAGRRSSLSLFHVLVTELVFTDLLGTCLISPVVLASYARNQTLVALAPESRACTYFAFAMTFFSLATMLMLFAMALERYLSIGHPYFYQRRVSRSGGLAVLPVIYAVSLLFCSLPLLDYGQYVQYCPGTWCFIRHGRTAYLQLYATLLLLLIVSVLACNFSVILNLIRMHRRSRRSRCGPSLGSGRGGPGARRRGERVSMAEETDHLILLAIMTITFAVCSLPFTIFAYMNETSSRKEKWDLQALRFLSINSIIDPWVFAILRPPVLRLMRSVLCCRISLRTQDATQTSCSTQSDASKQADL

## O=C(O)CCC/C=C\C[C@@H]1[C@@H](/C=C/[C@H](O)C2Cc3ccccc3C2)[C@@H](F)C[C@@H]1O [AL-8810, (5Z, 13E)-(9S, 11S,15R)-9,15-dihydroxy-11-fluoro-15-(2-indanyl)-16, 17, 18, 19, 20-pentanor-5,13-prostadienoic acid]
[1]
  FP receptor antagonist potency: micromolar potency
[2]
  inhibition of functional responses of TP receptor: not to significantly inhibit
[3]
  inhibition of functional responses of EP2 receptor: not to significantly inhibit
[4]
  inhibition of functional responses of DP receptor: not to significantly inhibit
[5]
  inhibition of functional responses of EP4 receptor: not to significantly inhibit

## CS(=O)(=O)Nc1cc2c(cc1Sc1ccc(F)cc1F)C(=O)CC2 [L 475 L337]
[6]
  specificity for COX-2 inhibition over COX-1 inhibition: 500 fold

## CS(=O)(=O)Nc1ccc([N+](=O)[O-])cc1Oc1ccccc1 [Nimesulide, N-(4-nitro-2-phenoxyphenyl) methanesulfonamide]
[6]
  specificity for COX-2 inhibition over COX-1 inhibition: 100 fold

## CCCCC[C@H](O)/C=C/[C@H]1[C@H](O)CC(=O)[C@@H]1C/C=C\CCCC(=O)O [PGE2]
[7]
  increase in proliferation: 25%

## CCCCC[C@H](O)/C=C/[C@@H]1[C@@H](C/C=C\CCCC(=O)O)[C@@H](O)C[C@H]1O [PGF2α]
[7]
  increase in proliferation: 31%

## CC#CCC(C)[C@H](O)/C=C/[C@@H]1[C@H]2C/C(=C/CCCC(=O)O)C[C@H]2C[C@H]1O (stereo partly shown) [iloprost]
[8]
  cAMP generation, of control values: 37,936%±18,464%
[9]
  proliferation, of control values: 109.4%±2.4%
[10]
  cAMP generation, of control values: 166%±27.6%
[11]
  proliferation, of control values: 112%±3.8%
[12]; samples from proliferative phase of the menstrual cycle
  fold increase in cAMP generation: 4.83±0.74 fold
[12]; samples from secretory phase of the menstrual cycle
  fold increase in cAMP generation: 2.07±0.38 fold and 2.07±0.39 fold

## CCCCC/C=C\C\C=C/C=C/C=C/[C@@H](SC[C@H](NC(=O)CC[C@H](N)C(=O)O)C(=O)NCC(=O)O)[C@@H](O)CCCC(=O)O [leukotriene C4]
[13]
  IC50: 5 µM

## CSc1ccc(/C=C2/C(C)=C(CC(=O)O)c3cc(F)ccc32)cc1 [sulindac sulphide]
[13]
  IC50: 80 µM

## Cc1ccc(S(=O)(=O)NC(=O)NN2CCCCCC2)cc1 [tolazamide]
[1]
  FP receptor antagonist potency: very weak antagonists

## CCCCNC(=O)NS(=O)(=O)c1ccc(C)cc1 [tolbutamide]
[1]
  FP receptor antagonist potency: very weak antagonists
